The record followed here is patent publication US20080306243A1, “Hla-Binding Peptide, and Dna Fragment and Recombinant Vector Coding for Said Hla-Binding Peptide” (NEC CORPORATION, priority 2005, published 2008).

Where two headings read alike, the source gives them in different places. Ends that are not written are not given here.

In one experiment the target is HLA-A2402 molecule (Homo sapiens, UniProt P04439, D101N/D140Y/D185E/E176V/E190D/F33S/G103R/G107R/I119L/I121M/I306V/K335N/L105A/L180Q/L300P/N151K/N90K/Q86E/Q94H/R106L/R138H/R89G/T104I/T345S/V100E/W191G/Y123F). The experiment is described as follows: Experiment of binding peptide to HLA-A2402 molecule (C1R-A24 cells, flow cytometry). How it is done: (§1) The ability of a peptide to bind to an HLA-A2402 molecule, which is a product of the HLA-A*2402 gene, was measured using C1R-A24 cells expressing the HLA-A*2402 gene (cells prepared by Professor Masafumi Takiguchi, Kumamoto University being supplied with permission by Assistant Professor Masaki Yasukawa, Ehime University).
(§2) C1R-A24 cells were first exposed to acidic conditions at a pH of 3.3 for 30 seconds, thus dissociating and removing a light chain β2m, which is associated with HLA class I molecules in common, and an endogenous peptide originally bound to the HLA-A2402 molecule. After neutralization, purified β2m was added to C1R-A24 cells, the obtained product was added to serial dilutions of a peptide, and incubated on ice for 4 hours. Staining was carried out using fluorescently labeled monoclonal antibody 17A12, which recognizes association (MHC-pep) of the three members, that is, HLA-A2402 molecule, the peptide, and β2m, which had reassociated during the incubation.
(§3) Subsequently, the MHC-pep count per C1R-A24 cell (proportional to the strength of fluorescence of the above-mentioned fluorescent antibody) was quantitatively measured using an FACScan fluorescence-activated cell sorter (Becton Dickinson Biosciences). A binding dissociation constant Kd value between the HLA-A24 molecule and the peptide was calculated from the average strength of fluorescence per cell by a published method (Udaka et al., Immunogenetics, 51, 816-828, 2000).

Experiment [1] relates to human HLA-A type molecule. The experiment is described as follows: Binding experiments summarised for HLA-A type molecules. The method, then: as §1, §2, §3
The ability of a peptide to bind to an HLA-A0201 molecule, which is a product of the HLA-A*0201 gene, was measured using strain JY cells expressing the HLA-A*0201 (obtained from ATCC (American Type Culture Collection)).
JY cells were first exposed to acidic conditions at a pH of 3.8 for 30 seconds, thus dissociating and removing a light chain β2m and an endogenous peptide, which were noncovalently associated with the HLA-A0201 molecule. After neutralization, a reassociation experiment was carried out. The above-mentioned JY cells and the purified β2m were added to stepped serial dilutions of peptide for which the binding ability was to be measured, and incubation was carried out on ice for 4 hours. HLA-A0201 molecules that had reassociated up to this point were stained using the associating type specific fluorescently-labeled monoclonal antibody BB7.2.
Subsequently, the amount of fluorescence per cell was measured using a flow cytometer and a dissociation constant Kd value was calculated by a published method (Udaka et al., Immunogenetics, 51, 816-828, 2000).
(§4) The ability of a peptide to bind to an HLA-A0206 molecule, which is a product of the HLA-A*0206 gene, was measured using RA2.6 cells (cell strain newly prepared in Kochi University), wherein cDNA of the HLA-A*0206 gene is expressed in RAMS cells, which are mouse peptide transporter TAP-deficient cells.
(§5) RA2.6 cells were first cultured overnight at 26° C., serial dilutions of peptide were added to HLA-A0206 molecules having no peptide bound thereto that were deposited on the cell surface, and binding was carried out at room temperature for 30 minutes.
(§6) Subsequently, culturing was carried out at 37° C. for 3.5 hours, empty HLA-A0206 molecules to which no peptide were bound was denatured, and the tertiary structure was lost.
(§7) The cells were stained by adding thereto fluorescently labeled monoclonal antibody 17A10 or 17A12, which specifically recognize the peptide-binding HLA-A0206 molecule, and incubating on ice for 20 minutes.
(§8) Subsequently, the amount of fluorescence per cell was measured using a flow cytometer, and a dissociation constant Kd value was calculated by a published method (Udaka et al., Immunogenetics, 51, 816-828, 2000).

The next experiment deals with T1, HLA-A0206 molecule (Homo sapiens, UniProt P04439, D140Y/D185E/D98H/E176V/E277Q/F33Y/G131W/G231S/I119V/I121R/I166T/I218V/L300P/L318F/N151K/N90K/P208A/P217A/Q86G/Q94H/R138H/R169H/T345S).
T1 construct: expressed in transfected cells; host or cells: RA2.6 cells (RAMS mouse TAP-deficient cells expressing HLA-A*0206 cDNA)
The experiment is described as follows: Experiment of binding peptide to HLA-A0206 molecule (RA2.6 cells, flow cytometry). How it is done:
as §4, §5, §6, §7, §8

The target in a further experiment is HLA-A0201 molecule (Homo sapiens, UniProt P04439, D140Y/D185E/D98H/E176V/E277Q/G131W/G231S/I119V/I121R/I166T/I218V/L300P/L318F/N151K/N90K/P208A/P217A/Q86G/Q94H/R138H/R169H/T345S). The experiment is described as follows: Experiment of binding peptide to HLA-A0201 molecule (JY cells, flow cytometry). To be noted: expressed as -log Kd value.
[2] abbreviates: binding to HLA-A2402 molecule, C1R-A24 cells, read-out: BINDING EXPERIMENT DATA (converted).
The mark [3] stands for this setting: binding to HLA-A0206 molecule, RA2.6 cells, read-out: BINDING EXPERIMENT DATA (converted).

As to `CC(C)C[C@H](NC(=O)[C@@H](NC(=O)[C@H](Cc1c[nH]c2ccccc12)NC(=O)[C@H](CCC(N)=O)NC(=O)[C@@H]1CCCN1C(=O)[C@H](Cc1c[nH]cn1)NC(=O)[C@@H](NC(=O)[C@H](CC(C)C)NC(=O)[C@@H](N)C(C)C)C(C)C)C(C)C)C(=O)O` [compound 9], at HLA-A2402 molecule (setting [2]), the Kd is 458 nM. Besides, in experiment [1] (result in words), the “binding to a human HLA-A type molecule” value was “experimentally confirmed to bind”. The corresponding values for QVFQVSHSF [compound 5] are 47.8 nM and “experimentally confirmed to bind”. Take GVLQGITSW [compound 8]: the Kd at HLA-A2402 molecule (setting [2]) is 4200 nM. In addition, the “binding to a human HLA-A type molecule” value in experiment [1] (result in words) was “experimentally confirmed to bind”. WVLTAAHCI [compound 12] gave a Kd on HLA-A2402 molecule of 23200 nM. Besides, the “binding to a human HLA-A type molecule” value in experiment [1] is on record as “experimentally confirmed to bind”. For the compound `CC(C)C[C@H](N)C(=O)N[C@H](C(=O)N[C@@H](C)C(=O)N[C@@H](CO)C(=O)N[C@@H](CCCNC(=N)N)C(=O)NCC(=O)N[C@@H](CCCNC(=N)N)C(=O)N[C@@H](C)C(=O)N[C@H](C(=O)O)C(C)C)C(C)C` [compound 22], on HLA-A0206 molecule (setting [3]), the Kd was 5580 nM. Compound WVLTAAHCI [compound 20] had a Kd on HLA-A0206 molecule of 1130 nM. Consider VHPQKVTKF [compound 7], for which the Kd on HLA-A2402 molecule (setting [2]) was 223 nM. For the same compound, the “binding to a human HLA-A type molecule” value in experiment [1] (result in words) is “experimentally confirmed to bind”.

As for DLPTQEPAL [compound 4], the Kd at HLA-A2402 molecule (setting [2]) was 5870 nM. Moreover, the “binding to a human HLA-A type molecule” value in experiment [1] (result in words) was “experimentally confirmed to bind”.

Regarding `CC(C)C[C@H](NC(=O)[C@@H](NC(=O)CN)C(C)C)C(=O)N[C@H](C(=O)N[C@@H](Cc1c[nH]cn1)C(=O)N1CCC[C@H]1C(=O)N[C@@H](CCC(N)=O)C(=O)N[C@@H](Cc1c[nH]c2ccccc12)C(=O)N[C@H](C(=O)O)C(C)C)C(C)C` [compound 19], at HLA-A0206 molecule (setting [3]), the Kd was 525 nM.

Consider DLPTQEPAL [compound 27], for which the Kd on HLA-A0206 molecule (setting [3]) is 5440 nM.

Turning to ILLGRHSLF [compound 3], the Kd at HLA-A2402 molecule (setting [2]) was 33.5 nM. Besides, in experiment [1] (result in words), the “binding to a human HLA-A type molecule” value was “experimentally confirmed to bind”. As to ILSRIVGGW [compound 6], at HLA-A2402 molecule (setting [2]), the Kd is 62 nM. The “binding to a human HLA-A type molecule” value in experiment [1] (result in words) is recorded as “experimentally confirmed to bind”. As for FHPEDTGQV [compound 13], the Kd at HLA-A0201 molecule was 2960 nM.

Regarding WVPVVFLTL [compound 24], the Kd on HLA-A0206 molecule (setting [3]) is 182 nM. WVPVVFLTL [compound 2]: at HLA-A2402 molecule (setting [2]), the Kd is 50.9 nM. The “binding to a human HLA-A type molecule” value in experiment [1] (result in words) was “experimentally confirmed to bind”.
